Experimental data reported in ChEMBL document CHEMBL1148617, “Design, synthesis, and structure-activity relationships of 1-,3-,8-, and 9-substituted-9-deazaxanthines at the human A2B adenosine receptor” (J Med Chem, 2006).

Assays:
Adenosine receptor A2a [1] = biological target: T1, Adenosine receptor A2a (Rattus norvegicus, UniProt P30543); test: Antagonist potency against adenosine A2A receptor of Sprague-Dawley rat aortic smooth muscle; format: functional; conditions: read-out: pA2 (converted)
[2] = biological target: T2, Adenosine receptor A2b (Homo sapiens) (UniProt P29275); test: Displacement of [3H]DPCPX from recombinant human adenosine A2B receptor expressed in HEK293 cells at 0.1 uM; format: cell-based
T2 sequence (whole entry): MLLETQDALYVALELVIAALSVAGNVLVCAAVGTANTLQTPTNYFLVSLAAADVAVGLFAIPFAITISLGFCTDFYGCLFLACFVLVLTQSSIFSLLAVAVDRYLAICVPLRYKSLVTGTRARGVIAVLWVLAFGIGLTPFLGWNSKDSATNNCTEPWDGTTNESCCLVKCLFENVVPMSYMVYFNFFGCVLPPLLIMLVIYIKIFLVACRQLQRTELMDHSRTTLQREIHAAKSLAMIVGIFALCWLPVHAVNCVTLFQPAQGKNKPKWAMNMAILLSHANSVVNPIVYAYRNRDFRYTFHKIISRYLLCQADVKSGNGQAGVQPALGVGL

Adenosine receptor A1 [3] = biological target: T3, Adenosine receptor A1 (Homo sapiens, UniProt P30542)
T3 sequence (P30542 whole entry): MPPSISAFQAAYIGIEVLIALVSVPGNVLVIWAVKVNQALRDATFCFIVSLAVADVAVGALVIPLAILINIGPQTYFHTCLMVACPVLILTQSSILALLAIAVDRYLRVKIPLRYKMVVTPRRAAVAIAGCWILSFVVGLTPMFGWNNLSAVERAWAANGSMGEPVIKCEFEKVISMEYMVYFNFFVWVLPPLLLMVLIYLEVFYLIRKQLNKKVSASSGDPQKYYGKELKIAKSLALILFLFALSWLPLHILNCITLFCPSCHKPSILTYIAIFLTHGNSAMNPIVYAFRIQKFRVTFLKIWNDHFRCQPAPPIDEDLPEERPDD
Description: Binding affinity to recombinant human adenosine A1 receptor

Adenosine receptor A3 = biological target: T4, Adenosine receptor A3 (Homo sapiens, UniProt P0DMS8)
T4 sequence (P0DMS8 whole entry): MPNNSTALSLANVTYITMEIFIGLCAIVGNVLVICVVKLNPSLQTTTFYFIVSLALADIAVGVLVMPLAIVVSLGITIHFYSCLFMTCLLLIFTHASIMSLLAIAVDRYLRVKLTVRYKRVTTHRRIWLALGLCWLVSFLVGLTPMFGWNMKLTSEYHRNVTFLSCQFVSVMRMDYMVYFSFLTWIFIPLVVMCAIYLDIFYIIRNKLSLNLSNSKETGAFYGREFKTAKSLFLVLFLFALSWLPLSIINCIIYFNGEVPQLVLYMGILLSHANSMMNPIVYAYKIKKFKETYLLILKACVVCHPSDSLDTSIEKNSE
Description: Binding affinity to recombinant human adenosine A3 receptor

[4] = biological target: T2, Adenosine receptor A2b (Homo sapiens); test: Displacement of [3H]DPCPX from recombinant human adenosine A2B receptor expressed in HEK293 cells at 0.01 uM
Adenosine receptor A2a [5] = biological target: Adenosine receptor A2a (Homo sapiens, UniProt P29274); test: Displacement of [3H]ZM-241385 from recombinant human adenosine A2A receptor expressed in HeLa cells at 0.1 uM
Adenosine receptor A2a [6] = biological target: T1, Adenosine receptor A2a; test: Binding affinity to rat adenosine A2A receptor
Adenosine receptor A1 [7] = biological target: T5, Adenosine receptor A1 (Rattus norvegicus, UniProt P25099); test: Binding affinity to rat adenosine A1 receptor
T5 sequence (P25099 whole entry): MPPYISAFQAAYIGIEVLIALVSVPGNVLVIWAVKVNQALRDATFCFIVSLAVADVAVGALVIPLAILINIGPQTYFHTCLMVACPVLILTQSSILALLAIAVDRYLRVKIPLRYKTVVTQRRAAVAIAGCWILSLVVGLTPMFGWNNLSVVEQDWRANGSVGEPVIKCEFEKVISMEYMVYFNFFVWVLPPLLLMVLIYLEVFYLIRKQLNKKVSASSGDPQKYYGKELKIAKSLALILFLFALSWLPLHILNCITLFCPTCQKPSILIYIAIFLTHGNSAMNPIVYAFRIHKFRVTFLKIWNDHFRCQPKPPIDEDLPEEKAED

Adenosine receptor A2b = biological target: T6, Adenosine receptor A2b (Homo sapiens, UniProt P29275)
T6 sequence (P29275 whole entry): T2 sequence (whole entry)
Description: Binding affinity to recombinant human adenosine A2B receptor

[8] = biological target: T7, Adenosine receptor A3 (Homo sapiens) (UniProt P0DMS8); test: Displacement of [3H]NECA from recombinant human adenosine A3 receptor expressed in HeLa cells at 1uM; format: cell-based
T7 sequence (whole entry): T4 sequence (P0DMS8 whole entry)

Chain of Adenosine receptor A2a (Homo sapiens, UniProt P29274) (P29274 whole entry): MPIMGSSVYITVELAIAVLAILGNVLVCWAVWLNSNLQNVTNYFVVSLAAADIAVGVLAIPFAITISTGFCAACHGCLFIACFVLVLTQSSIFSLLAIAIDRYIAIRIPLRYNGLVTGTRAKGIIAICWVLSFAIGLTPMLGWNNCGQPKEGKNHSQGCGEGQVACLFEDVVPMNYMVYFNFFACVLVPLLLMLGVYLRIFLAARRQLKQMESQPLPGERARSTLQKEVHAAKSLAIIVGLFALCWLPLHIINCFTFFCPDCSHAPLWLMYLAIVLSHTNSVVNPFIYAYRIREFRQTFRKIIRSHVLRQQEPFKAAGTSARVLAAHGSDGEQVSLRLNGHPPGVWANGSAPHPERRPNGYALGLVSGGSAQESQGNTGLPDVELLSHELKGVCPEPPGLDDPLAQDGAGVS
T1 sequence (P30543 whole entry): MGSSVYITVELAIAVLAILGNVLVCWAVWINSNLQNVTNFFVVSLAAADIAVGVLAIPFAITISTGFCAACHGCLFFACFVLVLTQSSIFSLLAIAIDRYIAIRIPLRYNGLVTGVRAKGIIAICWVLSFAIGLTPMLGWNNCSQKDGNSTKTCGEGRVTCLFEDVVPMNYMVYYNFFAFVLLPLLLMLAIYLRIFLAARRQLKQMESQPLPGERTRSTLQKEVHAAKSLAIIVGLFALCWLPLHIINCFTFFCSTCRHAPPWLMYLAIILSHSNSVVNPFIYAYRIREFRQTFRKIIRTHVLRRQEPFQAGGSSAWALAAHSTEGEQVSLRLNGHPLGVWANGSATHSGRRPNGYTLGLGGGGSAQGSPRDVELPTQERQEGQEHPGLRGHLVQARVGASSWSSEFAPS

Compound: CCCn1c(=O)c2[nH]c(-c3ccc(OCC(=O)Nc4ccc(-c5ccccc5)cc4)cc3)cc2n(C)c1=O
- Kb (Adenosine receptor A2a [1]): 468 nM
- inhibition [2]: 93%
- Ki (Adenosine receptor A1 [3]): 11 nM
- Ki (Adenosine receptor A3): 12300 nM
- inhibition [4]: 39%
- inhibition (Adenosine receptor A2a [5]): 15%

Compound: COc1cc(OCC(=O)Nc2ccc(Br)cc2)ccc1-c1cc2c([nH]1)c(=O)n(C)c(=O)n2C
- Kb (Adenosine receptor A2a [1]): 933 nM
- inhibition [2]: 83%
- Ki (Adenosine receptor A1 [3]): 32.4 nM
- Ki (Adenosine receptor A3): 10700 nM
- inhibition [4]: 60%
- inhibition (Adenosine receptor A2a [5]): 20%

Compound: CCCn1c(=O)c2[nH]c(-c3ccc(OCC(=O)O)cc3)nc2n(CCC)c1=O
- Ki (Adenosine receptor A2a [6]): 2240 nM
- Ki (Adenosine receptor A1 [7]): 63.1 nM
- Ki (Adenosine receptor A3): 3980 nM

Compound: CCCn1c(=O)c2nc(-c3ccc(OCC(=O)Nc4ccc(C)cc4)cc3)[nH]c2n(CCC)c1=O
- Ki (Adenosine receptor A2a [6]): 129 nM
- Ki (Adenosine receptor A2b): 1.91 nM

Compound: Cn1c(=O)c2[nH]c(-c3ccc(OCC(=O)Nc4ccc(Br)cc4)cc3)cc2n(C)c1=O
- inhibition [8]: 8%
- Kb (Adenosine receptor A2a [1]): 126 nM
- inhibition [2]: 90%
- Ki (Adenosine receptor A1 [3]): 18.2 nM
- inhibition [4]: 84%
- inhibition (Adenosine receptor A2a [5]): 12%

Compound: Cn1c(=O)c2[nH]c(-c3ccc(OCC(=O)Nc4ccc(F)cc4)cc3)cc2n(C)c1=O
- inhibition [8]: 20%
- Kb (Adenosine receptor A2a [1]): 51.3 nM
- inhibition [2]: 100%
- Ki (Adenosine receptor A1 [3]): 14.8 nM
- inhibition [4]: 72%
- inhibition (Adenosine receptor A2a [5]): 41%
